The values below come from publication doi:10.1101/2021.05.17.444520v1 (biorxiv, 2021).

This assay addresses T1, α2wt (Homo sapiens, UniProt P23416).
T1 sequence (P23416 28-452): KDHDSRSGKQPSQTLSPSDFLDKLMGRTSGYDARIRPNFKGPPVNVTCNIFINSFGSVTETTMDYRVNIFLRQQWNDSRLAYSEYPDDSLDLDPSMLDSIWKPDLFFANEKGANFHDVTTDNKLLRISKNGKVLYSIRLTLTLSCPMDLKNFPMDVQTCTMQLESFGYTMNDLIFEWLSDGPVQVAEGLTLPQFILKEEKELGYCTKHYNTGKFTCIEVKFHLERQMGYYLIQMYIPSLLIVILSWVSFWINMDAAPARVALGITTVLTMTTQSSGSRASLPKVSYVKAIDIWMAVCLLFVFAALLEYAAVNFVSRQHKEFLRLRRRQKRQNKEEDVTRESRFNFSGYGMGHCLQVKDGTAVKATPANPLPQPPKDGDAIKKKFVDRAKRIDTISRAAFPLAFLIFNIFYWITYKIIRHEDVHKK
The assay can be described thus: whole-cell patch clamp. It is filed as cell-based. The following applies: agonist; pH 7.4; -80 mV. (In general: Patch clamp records ionic current or voltage across a cell membrane.)

In the case of `NCC(=O)O` [glycine], the EC50 result was “Dose response of glycine from (A)”.
